ChEMBL document CHEMBL4229379, “Synthesis and structure-activity relationship of novel bisindole amidines active against MDR Gram-positive and Gram-negative bacteria” (Eur J Med Chem, 2018)
≈ marks a conversion by molar mass, not a printed value.

Tests used:
Escherichia coli [1] = assay: Antibacterial activity against extended-spectrum beta-lactamase deficient Escherichia coli ATCC 25922 after 18 hrs by CLSI broth microdilution method; assay type: functional; details: ATCC 25922, 18 h
Enterobacter cloacae [2] = assay: Antibacterial activity against new delhi metallo-beta-lactamase-1 harboring Enterobacter cloacae CDC1000654 after 18 hrs by CLSI broth microdilution method; assay type: functional; details: CDC1000654, 18 h
Escherichia coli [3] = assay: Antibacterial activity against extended-spectrum beta-lactamase deficient Escherichia coli 1515 after 18 hrs by CLSI broth microdilution method; assay type: functional; details: Escherichia coli, 1515, 18 h
Klebsiella pneumoniae [4] = assay: Antibacterial activity against extended-spectrum beta-lactamase harboring Klebsiella pneumoniae 12-8 after 18 hrs by CLSI broth microdilution method; assay type: functional; details: 12-8, 18 h
Enterococcus faecalis [5] = assay: Antibacterial activity against vancomycin-sensitive Enterococcus faecalis ATCC 29212 after 18 hrs by CLSI broth microdilution method; assay type: functional; details: ATCC 29212, 18 h
Enterobacter cloacae [6] = assay: Antibacterial activity against new delhi metallo-beta-lactamase-1 harboring Enterobacter cloacae 13-1 after 18 hrs by CLSI broth microdilution method; assay type: functional; details: 13-1, 18 h
Staphylococcus aureus [7] = assay: Antibacterial activity against methicillin-resistant Staphylococcus aureus ATCC 33591 infected in ICR mouse assessed as mouse survival at 2 mg/kg, iv administered at 1 and 5 hrs post infection and measured on day 7 day post last dose (reference value: 0%); assay type: functional; details: ATCC 33591, iv
Staphylococcus aureus [8] = assay: Antibacterial activity against methicillin-sensitive Staphylococcus aureus 12-28 after 18 hrs by CLSI broth microdilution method; assay type: functional; details: 12-28, 18 h
[9] = test system: Stenotrophomonas maltophilia; assay: Antibacterial activity against Stenotrophomonas maltophilia ATCC 13636 after 18 hrs by CLSI broth microdilution method; assay type: functional; details: ATCC 13636, 18 h
Pseudomonas aeruginosa [10] = assay: Antibacterial activity against Pseudomonas aeruginosa 12-16 after 18 hrs by CLSI broth microdilution method; assay type: functional; details: 12-16, 18 h
Klebsiella pneumoniae [11] = assay: Antibacterial activity against carbapenem-resistant Klebsiella pneumoniae 12-12 after 18 hrs by CLSI broth microdilution method; assay type: functional; details: 12-12, 18 h
[12] = test system: Staphylococcus epidermidis; assay: Antibacterial activity against methicillin-sensitive Staphylococcus epidermidis 12-6 after 18 hrs by CLSI broth microdilution method; assay type: functional; details: 12-6, 18 h
Pseudomonas aeruginosa [13] = assay: Antibacterial activity against Pseudomonas aeruginosa PAO1 after 18 hrs by CLSI broth microdilution method; assay type: functional; details: PAO1, 18 h
Klebsiella pneumoniae [14] = assay: Antibacterial activity against extended-spectrum beta-lactamase harboring Klebsiella pneumoniae ATCC 700603 after 18 hrs by CLSI broth microdilution method; assay type: functional; details: Klebsiella pneumoniae, 700603, 18 h
Escherichia coli [15] = assay: Antibacterial activity against extended-spectrum beta-lactamase harboring Escherichia coli 12-15 after 18 hrs by CLSI broth microdilution method; assay type: functional; details: 12-15, 18 h
Enterococcus faecalis [16] = assay: Antibacterial activity against vancomycin-resistant Enterococcus faecalis 09-9 after 18 hrs by CLSI broth microdilution method; assay type: functional; details: 09-9, 18 h
Escherichia coli [17] = assay: Antibacterial activity against extended-spectrum beta-lactamase harboring Escherichia coli CDC1001728 after 18 hrs by CLSI broth microdilution method; assay type: functional; details: CDC1001728, 18 h
Enterococcus faecium [18] = assay: Antibacterial activity against vancomycin-sensitive Enterococcus faecium 12-3 after 18 hrs by CLSI broth microdilution method; assay type: functional; details: 12-3, 18 h
[19] = test system: Staphylococcus epidermidis; assay: Antibacterial activity against methicillin-resistant Staphylococcus epidermidis 12-8 after 18 hrs by CLSI broth microdilution method; assay type: functional; details: 12-8, 18 h
Pseudomonas aeruginosa [20] = assay: Antibacterial activity against Pseudomonas aeruginosa ATCC 27853 after 18 hrs by CLSI broth microdilution method; assay type: functional; details: ATCC 27853, 18 h
Escherichia coli [21] = assay: Antibacterial activity against extended-spectrum beta-lactamase deficient Escherichia coli 12-14 after 18 hrs by CLSI broth microdilution method; assay type: functional; details: 12-14, 18 h
Serratia marcescens = assay: Antibacterial activity against Serratia marcescens ATCC 21074 after 18 hrs by CLSI broth microdilution method; assay type: functional; details: ATCC 21074, 18 h
Staphylococcus aureus [22] = assay: Antibacterial activity against methicillin-resistant Staphylococcus aureus ATCC 33591 infected in ICR mouse assessed as mouse survival at 2.5 mg/kg, iv administered at 1 and 5 hrs post infection and measured on day 7 day post last dose (reference value: 0%); assay type: functional; details: ATCC 33591, iv
Providencia rettgeri = assay: Antibacterial activity against Providencia rettgeri ATCC 31052 after 18 hrs by CLSI broth microdilution method; assay type: functional; details: ATCC 31052, 18 h
Enterococcus faecalis [23] = assay: Antibacterial activity against vancomycin-sensitive Enterococcus faecalis 12-5 after 18 hrs by CLSI broth microdilution method; assay type: functional; details: 12-5, 18 h
[24] = Cytotoxicity against HEK293T cells assessed as reduction in cell viability after 48 hrs by MTS assay; assay type: cell-based, HEK-293T; details: human
Klebsiella aerogenes = assay: Antibacterial activity against carbapenem-resistant Enterobacter aerogenes 11-4 after 18 hrs by CLSI broth microdilution method; assay type: functional; details: 11-4, 18 h
[25] = test system: Staphylococcus epidermidis; assay: Antibacterial activity against methicillin-sensitive Staphylococcus epidermidis ATCC 12228 after 18 hrs by CLSI broth microdilution method; assay type: functional; details: ATCC 12228, 18 h
Enterobacter cloacae [26] = assay: Antibacterial activity against Enterobacter cloacae ATCC 43560 after 18 hrs by CLSI broth microdilution method; assay type: functional; details: ATCC 43560, 18 h
Enterococcus faecalis [27] = assay: Antibacterial activity against vancomycin-resistant Enterococcus faecalis ATCC 51299 after 18 hrs by CLSI broth microdilution method; assay type: functional; details: ATCC 51299, 18 h
Enterococcus faecium [28] = assay: Antibacterial activity against vancomycin-resistant Enterococcus faecium ATCC 700221 after 18 hrs by CLSI broth microdilution method; assay type: functional; details: ATCC 700221, 18 h
Enterococcus faecium [29] = assay: Antibacterial activity against vancomycin-resistant Enterococcus faecium 12-1 after 18 hrs by CLSI broth microdilution method; assay type: functional; details: 12-1, 18 h
[30] = test system: Acinetobacter calcoaceticus; assay: Antibacterial activity against Acinetobacter calcoaceticus ATCC 19606 after 18 hrs by CLSI broth microdilution method; assay type: functional; details: ATCC 19606, 18 h
Staphylococcus aureus [31] = assay: Antibacterial activity against methicillin-sensitive Staphylococcus aureus 15 after 18 hrs by CLSI broth microdilution method; assay type: functional; details: Staphylococcus aureus, 15, 18 h
Klebsiella pneumoniae [32] = assay: Antibacterial activity against extended-spectrum beta-lactamase deficient Klebsiella pneumoniae 12-4 after 18 hrs by CLSI broth microdilution method; assay type: functional; details: 12-4, 18 h
Klebsiella pneumoniae [33] = assay: Antibacterial activity against new delhi metallo-beta-lactamase-1 harboring Klebsiella pneumoniae ATCC BAA-2146 after 18 hrs by CLSI broth microdilution method; assay type: functional; details: ATCC BAA-2146, 18 h
Citrobacter freundii = assay: Antibacterial activity against Citrobacter freundii ATCC 43864 after 18 hrs by CLSI broth microdilution method; assay type: functional; details: ATCC 43864, 18 h
Klebsiella pneumoniae [34] = assay: Antibacterial activity against carbapenem-resistant Klebsiella pneumoniae 12-11 after 18 hrs by CLSI broth microdilution method; assay type: functional; details: 12-11, 18 h
Proteus mirabilis = assay: Antibacterial activity against Proteus mirabilis 12-6 after 18 hrs by CLSI broth microdilution method; assay type: functional; details: 12-6, 18 h
Staphylococcus aureus [35] = assay: Antibacterial activity against methicillin-resistant Staphylococcus aureus ATCC 33591 after 18 hrs by CLSI broth microdilution method; assay type: functional; details: ATCC 33591, 18 h

CN(C)C(=N)c1ccc2cc(-c3ccc(-c4cc5ccc(C(=N)N(C)C)cc5[nH]4)cc3)[nH]c2c1
MIC (Escherichia coli [1]): 1 µg/mL (≈ 2.23 µM)
MIC (Enterobacter cloacae [2]): 4 µg/mL (≈ 8.92 µM)
MIC (Escherichia coli [3]): 1 µg/mL (≈ 2.23 µM)
MIC (Klebsiella pneumoniae [4]): 4 µg/mL (≈ 8.92 µM)
MIC (Enterococcus faecalis [5]): 1 µg/mL (≈ 2.23 µM)
MIC (Enterobacter cloacae [6]): 4 µg/mL (≈ 8.92 µM)
survival at 2 mg/kg (Staphylococcus aureus [7]): 20%
MIC (Staphylococcus aureus [8]): 0.25 µg/mL (≈ 0.557 µM)
MIC [9]: 8 µg/mL (≈ 17.8 µM)
MIC (Pseudomonas aeruginosa [10]): 64 µg/mL (≈ 143 µM)
MIC (Klebsiella pneumoniae [11]): 16 µg/mL (≈ 35.7 µM)
MIC [12]: 0.125 µg/mL (≈ 0.279 µM)
MIC (Pseudomonas aeruginosa [13]): 64 µg/mL (≈ 143 µM)
MIC (Klebsiella pneumoniae [14]): 4 µg/mL (≈ 8.92 µM)
MIC (Escherichia coli [15]): 2 µg/mL (≈ 4.46 µM)
MIC (Enterococcus faecalis [16]): 1 µg/mL (≈ 2.23 µM)
MIC (Escherichia coli [17]): 2 µg/mL (≈ 4.46 µM)
MIC (Enterococcus faecium [18]): 1 µg/mL (≈ 2.23 µM)
MIC [19]: 0.25 µg/mL (≈ 0.557 µM)
MIC (Pseudomonas aeruginosa [20]): 4 µg/mL (≈ 8.92 µM)
MIC (Escherichia coli [21]): 1 µg/mL (≈ 2.23 µM)
MIC (Serratia marcescens): 16 µg/mL (≈ 35.7 µM)
survival at 2.5 mg/kg (Staphylococcus aureus [22]): 50%
MIC (Providencia rettgeri): 2 µg/mL (≈ 4.46 µM)
MIC (Enterococcus faecalis [23]): 2 µg/mL (≈ 4.46 µM)
CC50 at 48 h [24]: 4.13 µg/mL (≈ 9.21 µM)
MIC (Klebsiella aerogenes): 8 µg/mL (≈ 17.8 µM)
MIC [25]: 0.125 µg/mL (≈ 0.279 µM)
MIC (Enterobacter cloacae [26]): 1 µg/mL (≈ 2.23 µM)
MIC (Enterococcus faecalis [27]): 1 µg/mL (≈ 2.23 µM)
MIC (Enterococcus faecium [28]): 1 µg/mL (≈ 2.23 µM)
MIC (Enterococcus faecium [29]): 0.5 µg/mL (≈ 1.11 µM)
MIC [30]: 8 µg/mL (≈ 17.8 µM)
MIC (Staphylococcus aureus [31]): 0.25 µg/mL (≈ 0.557 µM)
MIC (Klebsiella pneumoniae [32]): 4 µg/mL (≈ 8.92 µM)
MIC (Klebsiella pneumoniae [33]): 2 µg/mL (≈ 4.46 µM)
MIC (Citrobacter freundii): 2 µg/mL (≈ 4.46 µM)
MIC (Klebsiella pneumoniae [34]): 8 µg/mL (≈ 17.8 µM)
MIC (Proteus mirabilis): 8 µg/mL (≈ 17.8 µM)
MIC (Staphylococcus aureus [35]): 0.25 µg/mL (≈ 0.557 µM)
